pIC50: −log10 of the molar value.

Common to all, as to format: cell-based
Series [1] has as its system CH27. The series can be described thus: trypan blue exclusion assay, CH27 cells. Particulars: CH27 human lung squamous carcinoma. The protocol: CH27 cells (Human lung squamous carcinoma) were grown in monolayer culture in Dulbecco's modified Eagle's medium (DMEM; Life Technologies, Rockville, Md., USA) containing 5% FBS (HyClone, Logan, Utah, USA), 100 U/ml penicillin, […] streptomycin (Gibco BRL, Rockville, Md., USA) and 2 mM glutamine (Merck, Darmstadt, Germany).
(§1) Cell viability was also determined by trypan-blue exclusion assay. Cells were seeded in 6-well plates (2×10^4/well) for trypan blue exclusion assay, and incubated for 24 hours at 37° C. Culture medium containing test compound or DMSO (0.006%) was added to each well, and cells were incubated at 37° C. At indicated time points (0, 24, 48, 72 and 96 hr), cells were suspended with 0.05% trypsin-EDTA, and stained with trypan-blue dye (0.4%) (Sigma). The cell viability was evaluated by the percentage of death relative to the total cell, and cell growth curve was determined by number of live cells relative to the total number of cells.
(§2) The anti-proliferation effects of Compounds 17-31 on M21, CH27, H460, Hep3B and HSC-3 cells were evaluated by the trypan blue exclusion assay.

The test system of series [2] is H460. The series can be described thus: trypan blue exclusion assay, H460 cells. Particulars: NCI-H460, H460 human non-small cell lung cancer. As for the experimental part: (§3) Hep3B (human hepatocellular carcinoma) and H460 (lung non-small carcinoma) cells were grown in monolayer culture in Dulbecco's modified Eagle's medium (DMEM) (Life Technologies, Rockville, Md., USA) containing 5% fetal bovine serum (HyClone, Logan, Utah, USA), 100 U/ml penicillin and 100 μg/ml streptomycin (Gibco BRL, Rockville, Md., USA) and 2 mM glutamine (Merck, Darmstadt, Germany).
as §1, §2

For series [3], the system named is Hep3B. Kind of series: trypan blue exclusion assay, Hep3B cells. Particulars: Hep3B human hepatoma. The protocol: as §3, §1, §2
In series [4] the test system is M21, CH27, H460, Hep3B and HSC-3 cells. The series can be described thus: trypan blue exclusion assay, cancer cell panel (summary). The following applies: summary of Table 2. The protocol:
as §1, §2

For series [5], the system named is human glia cell line SVGP12. Kind of series: MTS cell viability assay, normal glia cell line SVGP12. Particulars: 0.00625-1 μM. As for the experimental part: The human glioma cell lines U87, U251, T98G, U373, and rat glioma cell line RT2 provided by Dr. Michael Hsiao (Genomics Research Center, Academia Sinica, Taiwan) were cultured in Dulbecco's Modified Eagle medium (DMEM) (Caisson) supplemented with 10% fetal bovine serum (FBS) (Sigma-Aldrich), 2 mM L-glutamine (Caisson), 100 U/ml penicillin, and 100 μg/ml streptomycin (Caisson). The rat glioma C6 cell line provided by Dr. Shun-Fen Tzeng (National Cheng Kung University, Taiwan) was cultured in DMEM/F12 (Caisson) supplemented with 10% fetal bovine serum, 2 mM L-glutamine, 100 U/ml penicillin, and 100 μg/ml streptomycin. […] Cell proliferation was determined by MTS (tetrazolium compound, 3-(4,5-dimethylthiazol-2-yl)-5-(3-carboxymethoxyphenyl)-2-(4-sulfophenyl)-2H-tetrazolium) assay (Promega). […] The absorbance of soluble formazan was measured at 490 nm with microplate reader (Molecular device). The cell viability was determined by the percentage of the absorption relative to untreated control. […] To investigate the influence of MJ-66 on normal glia such as human glia cell line SVGP12 and rat primary glia cells, cells were treated with different concentrations of MJ-66 in vitro (0.00625, 0.0125, 0.025, 0.05, 0.1 and 1 μM) for different time durations (0, 6, 12 and 24 hours) and the cell viability was assessed by MTS assay. […]
(In general: Formazan colour is commonly taken as a measure of viable cells.)

Turning to `O=c1[nH]c(-c2cccc3ccccc23)nc2ccc(N3CCCC3)cc12` [Compound 23, 6-(Pyrrolidin-1-yl)-2-(naphthalen-1-yl)quinazolin-4-one], the pIC50 (commonly the negative decadic logarithm of the IC50, by convention in mol/L) in series [1] is 7.28; in series [2] it was 7.12; in series [3], 5.87. In addition, the “cytotoxic effects toward cancer cells” value in series [4] is listed as “exhibited cytotoxic effects”. Besides, the “cell viability of SVGP12” value in series [5] is “inhibited”.

These data come from US8710064B2, “2-aryl-4-quinazolinones and their pharmaceutical compositions” (China Medical University, priority 2011, dated 2014).
